Data from ChEMBL document CHEMBL1145669, “Antihepatotoxic principles of Atractylodes rhizomes” (1983).

Tests used:
[1] = test system: Hepatocyte; assay: Antihepatotoxic activity against galactosamine-induced cytotoxicity in rat hepatocytes assessed as GPT level at 1 mg/mL relative to control; assay type: functional
[2] = test system: Hepatocyte; assay: Antihepatotoxic activity against carbon tetrachloride-induced cytotoxicity in rat hepatocytes assessed as GPT level at 1 mg/mL relative to control; assay type: functional
[3] = test system: Hepatocyte; assay: Antihepatotoxic activity against carbon tetrachloride-induced cytotoxicity in rat hepatocytes assessed as GPT level at 0.1 mg/mL relative to control; assay type: functional
[4] = test system: Hepatocyte; assay: Antihepatotoxic activity against galactosamine-induced cytotoxicity in rat hepatocytes assessed as GPT level at 0.01 mg/mL relative to control; assay type: functional
[5] = test system: Hepatocyte; assay: Antihepatotoxic activity against carbon tetrachloride-induced cytotoxicity in rat hepatocytes assessed as GPT level at 0.01 mg/mL relative to control; assay type: functional
[6] = test system: Hepatocyte; assay: Antihepatotoxic activity against galactosamine-induced cytotoxicity in rat hepatocytes assessed as GPT level at 0.1 mg/mL relative to control; assay type: functional
[7] = biological target: T1, Alanine aminotransferase 1 (Rattus norvegicus) (UniProt P25409); assay: Effect on GPT in rat hepatocytes relative to control; assay type: cell-based; conditions: Hepatocyte
T1 sequence (whole entry): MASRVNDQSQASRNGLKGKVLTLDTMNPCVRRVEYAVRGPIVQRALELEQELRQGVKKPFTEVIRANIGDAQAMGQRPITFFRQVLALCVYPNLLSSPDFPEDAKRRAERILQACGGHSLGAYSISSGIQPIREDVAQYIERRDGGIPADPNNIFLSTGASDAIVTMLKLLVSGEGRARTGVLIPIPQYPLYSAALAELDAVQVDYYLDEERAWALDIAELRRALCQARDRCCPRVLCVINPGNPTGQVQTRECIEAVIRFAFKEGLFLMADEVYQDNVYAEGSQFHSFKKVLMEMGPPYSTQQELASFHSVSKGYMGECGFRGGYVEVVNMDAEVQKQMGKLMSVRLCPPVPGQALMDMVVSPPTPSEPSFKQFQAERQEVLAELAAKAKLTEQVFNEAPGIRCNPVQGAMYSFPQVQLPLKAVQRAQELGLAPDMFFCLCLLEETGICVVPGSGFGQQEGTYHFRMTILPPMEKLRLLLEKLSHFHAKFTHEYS

| Activity [7] [%] | Structure (SMILES) | Activity [1] [%] | Activity [2] [%] | Activity [3] [%] | Activity [4] [%] | Activity [5] [%] | Activity [6] [%] |
| --- | --- | --- | --- | --- | --- | --- | --- |
| – | C[C@H]1CCC[C@]2(C)CC(=O)[C@@H](C(C)(C)O)C[C@@H]12 | 81 | 71 | – | – | – | – |
| – | C[C@H]1CCC[C@]2(C)CC(O)[C@@H](C(C)(C)O)C[C@@H]12 (stereo partly drawn) | 82 | 44 | – | – | – | – |
| – | C=C1CCC[C@]2(C)C[C@]3(O)OC(=O)C(C)=C3C[C@@H]12 [ATRACTYLENOLIDE III] | 97 | 103 | – | – | – | – |
| – | C=C1CCC[C@]2(C)C[C@@H]3OC(=O)C(C)=C3C[C@@H]12 [ATRACTYLENOLIDE II] | 94 | 74 | – | – | – | – |
| – | C=C1CCC[C@]2(C)C=C3OC(=O)C(C)=C3C[C@@H]12 [ATRACTYLENOLIDE I] | 107 | 68 | – | – | – | – |
| 106 | C=C1CCC[C@]2(C)Cc3occ(C)c3C[C@@H]12 [ATRACTYLON] | 84 | 25 | 53 | 99 | 67 | 92 |
| 106 | C=C1CCC[C@]2(C)CC[C@@H](C(C)(C)O)C[C@@H]12 [BETA-EUDESMOL] | 79 | 53 | 70 | 104 | 83 | 94 |
| – | C[C@H]1CCC[C@]2(C)CC[C@@H](C(C)(C)O)C[C@H]12 [DIHYDROEUDESMOL] | 83 | 58 | – | – | – | – |
| – | CC1CCC[C@H](C)[C@@]12CC[C@@H](C(C)(C)O)C2 (stereo partly drawn) [DIHYDROHINESOL] | 35 | 67 | – | – | – | – |
| – | OCc1ccco1 [FURFURYL ALCOHOL] | – | 90 | 101 | – | 102 | – |
| 105 | CC1=CCC[C@H](C)[C@@]12CC[C@@H](C(C)(C)O)C2 [HINESOL] | 73 | 31 | 62 | 101 | 79 | 99 |
